Measured values reported in patent US6815183B1, “Plasmodium sp. chitinase” (The Board of Regents of the University of Texas System, priority 1999, dated 2004).
Where two headings read alike, the source gives them in different places.

Legend:
[1] = system: Endo Lys-C-treated rPgCHT1; test: Kinetics of Endo Lys-C-treated rPgCHT1-NT1 on 4-MU substrates (Lineweaver-Burk plot); settings: pH 6.0
rPgCHT1 = rPgCHT1 (Plasmodium gallinaceum, UniProt Q9NJX9); test: biochemical
[2] = biological target: peak 1 of chitinase activity (native PgCHT1) (Plasmodium gallinaceum, UniProt Q9NJX9); assay type: biochemical
Sequence of peak 1 of chitinase activity (native PgCHT1) (Q9NJX9 entry or part of it): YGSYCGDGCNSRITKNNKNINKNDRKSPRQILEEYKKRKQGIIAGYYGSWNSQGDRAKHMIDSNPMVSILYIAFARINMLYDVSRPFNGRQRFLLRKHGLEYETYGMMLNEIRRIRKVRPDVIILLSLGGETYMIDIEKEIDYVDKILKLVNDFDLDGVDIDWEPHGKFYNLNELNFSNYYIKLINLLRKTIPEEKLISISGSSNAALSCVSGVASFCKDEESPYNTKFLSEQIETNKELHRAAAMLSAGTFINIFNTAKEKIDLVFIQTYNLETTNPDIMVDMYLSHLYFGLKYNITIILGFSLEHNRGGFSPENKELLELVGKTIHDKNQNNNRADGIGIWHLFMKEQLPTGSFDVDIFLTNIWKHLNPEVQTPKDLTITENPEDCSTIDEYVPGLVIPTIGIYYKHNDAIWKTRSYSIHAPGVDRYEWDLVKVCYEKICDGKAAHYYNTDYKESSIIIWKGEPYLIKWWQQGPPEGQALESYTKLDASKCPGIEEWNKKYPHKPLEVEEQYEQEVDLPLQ

[3] = biological target: peak 2 of chitinase activity (PgCHT2) (Plasmodium gallinaceum, UniProt A0A1J1H1G1); assay type: biochemical
Sequence of peak 2 of chitinase activity (PgCHT2) (A0A1J1H1G1 entry or part of it): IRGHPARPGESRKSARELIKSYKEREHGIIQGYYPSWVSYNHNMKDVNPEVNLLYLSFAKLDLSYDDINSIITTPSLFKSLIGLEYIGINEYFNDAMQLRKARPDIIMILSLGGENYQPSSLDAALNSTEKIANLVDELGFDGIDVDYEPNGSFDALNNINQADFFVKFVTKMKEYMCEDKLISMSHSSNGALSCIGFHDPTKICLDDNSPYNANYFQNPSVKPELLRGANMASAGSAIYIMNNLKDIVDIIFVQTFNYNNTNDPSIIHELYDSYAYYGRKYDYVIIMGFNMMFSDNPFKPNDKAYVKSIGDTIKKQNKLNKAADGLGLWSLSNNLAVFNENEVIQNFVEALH

Sequence of rPgCHT1 (Q9NJX9 entry or part of it): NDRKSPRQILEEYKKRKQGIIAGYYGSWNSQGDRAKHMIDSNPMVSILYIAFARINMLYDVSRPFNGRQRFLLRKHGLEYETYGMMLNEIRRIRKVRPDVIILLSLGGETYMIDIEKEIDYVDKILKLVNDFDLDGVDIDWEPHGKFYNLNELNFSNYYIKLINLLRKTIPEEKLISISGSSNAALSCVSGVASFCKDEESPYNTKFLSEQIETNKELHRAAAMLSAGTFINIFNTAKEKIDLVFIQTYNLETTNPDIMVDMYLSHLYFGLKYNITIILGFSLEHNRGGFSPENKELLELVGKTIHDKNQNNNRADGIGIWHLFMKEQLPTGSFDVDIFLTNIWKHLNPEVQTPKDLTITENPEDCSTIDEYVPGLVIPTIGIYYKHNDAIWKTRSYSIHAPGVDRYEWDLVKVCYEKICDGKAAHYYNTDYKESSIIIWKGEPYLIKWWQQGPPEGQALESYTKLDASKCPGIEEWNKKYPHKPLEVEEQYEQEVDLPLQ

IC50 (rPgCHT1)	IC50 [2]	IC50 ([3]; read-out: IC50 of PgCHT2)	IC50 ([3]; read-out: IC50 value for peak 2)	Structure (SMILES)	Km [1]
				CC(=O)N[C@H]1[C@H](Oc2ccc3c(C)cc(=O)oc3c2)O[C@H](CO)[C@@H](O[C@@H]2O[C@H](CO)[C@@H](O[C@@H]3O[C@H](CO)[C@@H](O)[C@H](O)[C@H]3NC(C)=O)[C@H](O)[C@H]2NC(C)=O)[C@@H]1O [4-MU GlcNAc3, 4-methylumbelliferyl-N,N′,N″-β-D-triacetylchitotrioside]	140 µM
12 µM	7 µM	0.3 µM	0.3 µM	CC(=O)N[C@H]1[C@H](O[C@H]2[C@@H](O)[C@@H](NC(C)=O)[C@H](O[C@H]3[C@H](O)[C@H]4N=C(N(C)C)O[C@H]4[C@@H]3CO)O[C@@H]2CO)O[C@H](CO)[C@@H](O)[C@H]1O [allosamidin]	
